Measured values: US11130768B2, “Bicyclic pyrazole derivatives” (Bayer Animal Health GMBH, priority 2017, dated 2021)

Columns and labels:
[1] = tested on: Dirofilaria immitis microfilariae; test: In Vitro Assay 3: Dirofilaria immitis microfilariae (DIROIM L1), motility; conditions: 72 h, read-out: EC50 (reduction of motility)
C. elegans Slo-1a = C. elegans Slo-1a (Caenorhabditis elegans, UniProt Q95V25)
Method: In Vitro Assay 1: C. elegans Slo-1a—Action at a Recombinant C. elegans Cell Line
Generation of a Stable C. elegans CHO Cell Line
A CHO cell line was obtained from ATCC, code ATCC CRL-9096. For transfection with plasmid DNA to express C. elegans Slo-1a (accession number AAL28102) CHO cells were passaged to 40% confluence before adding the transfection solution to the cell culture. The transfection solution included 300 μL OptiMEM (Life Technologies, Nr.: 31985), 2 μL (=6 μg) of plasmid DNA containing the C. elegans Slo 1a gene and 9 μL FugeneHD (Promega, Nr.: E2311), and was added to the cells prior to incubation for 48 hours at 37° C., 5% CO2. The transfection medium was exchanged for the selection medium which contains additional G418 (2 mg/ml, Invitrogen, Nr.: 10131) and the cells were seeded into 384 well plates (300 cells/well). After a few weeks, the remaining surviving cells were tested with a voltage sensitive dye (Membrane Potential Assay Kit, Molecular Devices Nr.: R8034) for K+ channel expression. Positive cell clones were purified by the limited dilution technique. For this the clone with the highest and most robust signal in the voltage sensitive dye assay was further subcloned (incubated) in 384 well plates (0.7 cells/well) in order to obtain clonal purity. This generated a final stable CHO cell line expressing the C. elegans Slo-1a.
Cells were cultured at 37° C. and 5% CO2 in MEMalpha with Gutamax I (Invitrogen, Nr.: 32571), supplemented with 10% (v/v) heat inactivated fetal bovine serum (Invitrogen, Nr.: 10500), G418 (1 mg/ml, Invitrogen, Nr.: 10131). Cells were detached using Accutase (Sigma, Nr.: A6964).
Membrane Potential Measurements
Laboratory compound testing was performed on 384-well microtiter plates (MTPs, Greiner, Nr.: 781092). 8000 cells/well were plated onto 384-well MTPs and cultured for 20 to 24 hours at 37° C. and 5% CO2. After removal of the cell culture medium, the cells were washed once with tyrode (150 mM NaCl, 0.3 mM KCl, 2 mM CaCl2, 1 mM MgCl2, 0.8 mM NaH2PO4, 5 mM Glucose, 28 mM Hepes, pH 7.4) and then loaded with the voltage sensitive dye of the Membrane Potential Assay Kit diluted in tyrode for 1 h at room temperature.
After starting the measurement of fluorescence using a FLIPR Tetra (Molecular Devices, Exc. 510-545 nm, Emm. 565-625 nm), test compounds were added followed by the addition of KCl tyrode (final assay concentration: 70 mM KCl, 2 mM CaCl2, 1 mM MgCl2, 0.8 mM NaH2PO4, 5 mM Glucose, 28 mM Hepes, pH 7.4, including the voltage sensitive dye). The measurement was completed after 7 minutes.
The data were evaluated by using the ActivityBase XLfit software (IDBS) for curve fitting and calculation of the half-maximal effective concentration (EC50) and are reported as negative decadic logarithm (pE50).

[2] = tested on: Nippostrongylus brasiliensis; test: In Vitro Assay 2: Nippostrongylus brasiliensis (NIPOBR), acetylcholine esterase readout; conditions: adult worms, read-out: activity (reduction of AChE compared to negative control); for inhibition at 1 µg/mL: 1 μg/ml (1 ppm); for inhibition at 10 µg/mL: 10 μg/ml (10 ppm)
Method: In Vitro Assay 2: Nippostrongylus brasiliensis (NIPOBR)
Adult Nippostrongylus brasiliensis were washed with saline buffer containing 100 U/ml penicillin, 0.1 mg/ml streptomycin and 2.5 μg/ml amphotericin B. Test compounds were dissolved in DMSO and worms were incubated in medium in a final concentration of 10 μg/ml (10 ppm) respectively 1 μg/ml (1 ppm). An aliquot of the medium was used to determine the acetylcholine esterase activity in comparison to a negative control. The principle of measuring acetylcholine esterase as readout for anthelmintic activity was described in Rapson et al (1986) and Rapson et al (1987).

Haemonchus contortus = conditions: 120 h, read-out: activity (larval mortality)
Method: Solvent: dimethyl sulfoxide
Approximately 40 larvae of the red stomach worm (Haemonchus contortus) are transferred into a test tube containing compound solution.
After 5 days the percentage of larval mortality is recorded. 100% efficacy means all larvae are killed, 0% efficacy means no larvae are killed.

Cooperia curticei = conditions: 120 h, read-out: activity (larval mortality)
Method: In Vitro Assay 6: Cooperia curticei (COOPCU L3)
Solvent: dimethyl sulfoxide
Approximately 40 nematode larvae (Cooperia curticei) are transferred into a test tube containing the compound solution.
After 5 days percentage of larval mortality is recorded. 100% efficacy means all larvae are killed; 0% efficacy means no larvae are killed.

Sequence of C. elegans Slo-1a (Q95V25 whole entry): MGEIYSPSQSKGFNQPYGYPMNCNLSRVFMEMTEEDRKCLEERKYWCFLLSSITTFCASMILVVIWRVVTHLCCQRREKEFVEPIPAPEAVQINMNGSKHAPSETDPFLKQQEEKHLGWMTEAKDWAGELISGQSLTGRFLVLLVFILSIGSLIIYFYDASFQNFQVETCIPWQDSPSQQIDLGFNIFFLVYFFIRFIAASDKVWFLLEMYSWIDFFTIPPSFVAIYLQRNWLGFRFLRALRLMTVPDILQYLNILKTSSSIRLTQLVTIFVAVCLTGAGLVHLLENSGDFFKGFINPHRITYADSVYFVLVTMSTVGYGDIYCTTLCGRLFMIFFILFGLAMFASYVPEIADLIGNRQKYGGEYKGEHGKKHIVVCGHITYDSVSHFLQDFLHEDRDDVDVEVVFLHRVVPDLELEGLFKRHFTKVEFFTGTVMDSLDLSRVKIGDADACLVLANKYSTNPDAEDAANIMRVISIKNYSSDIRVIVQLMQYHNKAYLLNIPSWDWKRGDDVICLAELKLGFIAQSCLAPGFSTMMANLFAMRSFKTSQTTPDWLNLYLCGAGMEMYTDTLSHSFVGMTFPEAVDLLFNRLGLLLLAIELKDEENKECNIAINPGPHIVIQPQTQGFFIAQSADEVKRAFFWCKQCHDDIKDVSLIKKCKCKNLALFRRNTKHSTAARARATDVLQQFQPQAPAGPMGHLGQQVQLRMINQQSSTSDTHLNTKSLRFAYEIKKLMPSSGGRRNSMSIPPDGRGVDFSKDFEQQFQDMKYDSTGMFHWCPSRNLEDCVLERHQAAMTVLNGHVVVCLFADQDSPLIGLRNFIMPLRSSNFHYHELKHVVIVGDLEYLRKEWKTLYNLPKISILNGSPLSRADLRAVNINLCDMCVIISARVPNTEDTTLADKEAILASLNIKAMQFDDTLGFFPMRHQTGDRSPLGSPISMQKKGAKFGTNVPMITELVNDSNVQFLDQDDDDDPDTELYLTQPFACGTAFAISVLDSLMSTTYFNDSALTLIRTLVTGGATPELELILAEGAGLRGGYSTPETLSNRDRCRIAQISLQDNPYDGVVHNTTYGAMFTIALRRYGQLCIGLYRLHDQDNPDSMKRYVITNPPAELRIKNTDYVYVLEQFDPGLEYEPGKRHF

| Structure (SMILES) | EC50 [1] [mg/L] | EC50 (C. elegans Slo-1a) [nM] | inhibition at 1 µg/mL [2] [%] | inhibition at 10 µg/mL [2] [%] | mortality at 20 ppm (Haemonchus contortus) [%] | mortality at 20 ppm (Cooperia curticei) [%] |
| --- | --- | --- | --- | --- | --- | --- |
| Cc1nn2c(C(C)C)c(C(=O)N[C@H]3CCOc4ccccc43)sc2c1-c1cc(Cl)cc(Cl)c1 [Example 1, 7-(3,5-dichlorophenyl)-N-[(4S)-3,4-dihydro-2H-chromen-4-yl]-3-isopropyl-6-methylpyrazolo[5,1-b][1,3]thiazole-2-carboxamide] | < 0.1 | 3.16 to 31.6 | > 80 | > 80 | 90 | – |
| Cc1nn2c(C(C)C)c(C(=O)N[C@H]3CCOc4ccccc43)sc2c1-c1cccc(Cl)c1Cl [Example 2, 7-(2,3-dichlorophenyl)-N-[(4S)-3,4-dihydro-2H-chromen-4-yl]-6-methyl-3-(propan-2-yl)pyrazolo[5,1-b][1,3]thiazole-2-carboxamide] | < 0.1 | < 3.16 | – | > 80 | – | 90 |
| Cc1nn2c(C(C)C)c(C(=O)N[C@H]3CCOc4ccccc43)sc2c1-c1cccc(C(F)(F)F)c1F [Example 3, 7-[2-fluoro-3-(trifluoromethyl)phenyl]-N-[(4S)-3,4-dihydro-2H-chromen-4-yl]-6-methyl-3-(propan-2-yl)pyrazolo[5,1-b][1,3]thiazole-2-carboxamide] | < 0.1 | < 3.16 | – | > 80 | 90 | 90 |
| Cc1nn2c(C(C)C)c(C(=O)N[C@H]3CCOc4ccccc43)sc2c1-c1cccc(OC(F)(F)F)c1F [Example 4, N-[(4S)-3,4-dihydro-2H-chromen-4-yl]-7-[2-fluoro-3-(trifluoromethoxy)phenyl]-3-isopropyl-6-methylpyrazolo[5,1-b][1,3]thiazole-2-carboxamide] | < 0.1 | < 3.16 | – | > 80 | 80 | 80 |
| Cc1nn2c(C(C)C)c(C(=O)N[C@H]3CCOc4ccccc43)sc2c1-c1cc(Cl)c(F)c(Cl)c1 [Example 5, 7-(3,5-dichloro-4-fluorophenyl)-N-[(4S)-3,4-dihydro-2H-chromen-4-yl]-3-isopropyl-6-methylpyrazolo[5,1-b][1,3]thiazole-2-carboxamide] | < 0.1 | < 3.16 | > 80 | > 80 | – | 90 |
| Cc1nn2c(C(C)C)c(C(=O)N[C@H]3CCOc4ccccc43)sc2c1-c1ccc(F)c(N(C)C)c1F [Example 6, N-[(4S)-3,4-dihydro-2H-chromen-4-yl]-7-[3-(dimethylamino)-2,4-difluorophenyl]-6-methyl-3-(propan-2-yl)pyrazolo[5,1-b][1,3]thiazole-2-carboxamide] | < 0.1 | < 3.16 | > 80 | > 80 | – | 90 |
| Cc1nn2c(C(C)C)c(C(=O)N[C@H]3CCOc4ccccc43)sc2c1-c1ccc(Cl)c(Cl)c1 [Example 7, 7-(3,4-dichlorophenyl)-N-[(4S)-3,4-dihydro-2H-chromen-4-yl]-6-methyl-3-(propan-2-yl)pyrazolo[5,1-b][1,3]thiazole-2-carboxamide] | < 0.1 | 3.16 to 31.6 | – | > 80 | – | – |
| Cc1nn2c(C(C)C)c(C(=O)N[C@H]3CCOc4ccccc43)sc2c1-c1ccc(F)c(F)c1 [Example 8, 7-(3,4-difluorophenyl)-N-[(4S)-3,4-dihydro-2H-chromen-4-yl]-6-methyl-3-(propan-2-yl)pyrazolo[5,1-b][1,3]thiazole-2-carboxamide] | < 0.1 | 3.16 to 31.6 | – | – | – | – |
| Cc1nn2c(C(C)C)c(C(=O)N[C@H]3CCOc4ccccc43)sc2c1-c1ccc(F)c(F)c1F [Example 9] | < 0.1 | 3.16 to 31.6 | – | – | – | 90 |
| Cc1nn2c(C(C)C)c(C(=O)N[C@H]3CCOc4ccccc43)sc2c1-c1c(Cl)cccc1Cl [Example 10, 7-(2,6-dichlorophenyl)-N-[(4S)-3,4-dihydro-2H-chromen-4-yl]-6-methyl-3-(propan-2-yl)pyrazolo[5,1-b][1,3]thiazole-2-carboxamide] | < 0.1 | < 3.16 | – | – | – | – |
| Cc1nn2c(C(C)C)c(C(=O)N[C@H]3CCOc4ccccc43)sc2c1-c1cccc(C(F)(F)F)c1Cl [Example 11, 7-[2-chloro-3-(trifluoromethyl)phenyl]-N-[(4S)-3,4-dihydro-2H-chromen-4-yl]-6-methyl-3-(propan-2-yl)pyrazolo[5,1-b][1,3]thiazole-2-carboxamide] | < 0.1 | < 3.16 | – | – | 90 | 100 |
| Cc1nn2c(C(C)C)c(C(=O)N[C@H]3CCOc4ccccc43)sc2c1-c1cc(Cl)cc(Cl)c1Cl [Example 12, N-[(4S)-3,4-dihydro-2H-chromen-4-yl]-6-methyl-3-(propan-2-yl)-7-(2,3,5-trichlorophenyl)pyrazolo[5,1-b][1,3]thiazole-2-carboxamide] | < 0.1 | < 3.16 | – | – | 80 | 100 |
| Cc1nn2c(C(C)C)c(C(=O)N[C@H]3CCOc4ccccc43)sc2c1-c1cccc(N(C)C)c1F [Example 13, N-[(4S)-3,4-dihydro-2H-chromen-4-yl]-7-[3-(dimethylamino)-2-fluorophenyl]-6-methyl-3-(propan-2-yl)pyrazolo[5,1-b][1,3]thiazole-2-carboxamide] | < 0.1 | < 3.16 | > 80 | – | – | 90 |
| Cc1nn2c(C(C)C)c(C(=O)N[C@H]3CCc4ccccc43)sc2c1-c1cc(Cl)c(F)c(Cl)c1 [Example 14, 7-(3,5-dichloro-4-fluorophenyl)-N-[(1S)-2,3-dihydro-1H-inden-1-yl]-6-methyl-3-(propan-2-yl)pyrazolo[5,1-b][1,3]thiazole-2-carboxamide] | < 0.1 | 3.16 to 31.6 | > 80 | > 80 | – | – |
| Cc1nn2c(C(C)C)c(C(=O)N[C@H]3CCc4ccccc43)sc2c1-c1cccc(Cl)c1Cl [Example 15, 7-(2,3-dichlorophenyl)-N-[(1S)-2,3-dihydro-1H-inden-1-yl]-6-methyl-3-(propan-2-yl)pyrazolo[5,1-b][1,3]thiazole-2-carboxamide] | < 0.1 | < 3.16 | – | – | – | – |
